Laboratory results: article PMC2248166, “Quantitative peptide binding motifs for 19 human and mouse MHC class I molecules derived using positional scanning combinatorial peptide libraries” (Immunome Research, 2008)

Experiments:
HLA A*3001 = HLA A*3001 (Homo sapiens, UniProt P04439, D140H/D185E/E176W/F33S/G80R/H175R/K168Q/R138E/R41S); assay: biochemical; assay type: binding
HLA A*3201 = HLA A*3201 (Homo sapiens, UniProt P04439, A270S/D101S/D185E/E176V/E277Q/F133L/G103R/G107R/G231S/H175R/I121M/I218V/I322F/K168Q/L105A/L300P/L318F/M331R/P208A/P217A/Q94H/R106L/R138Q/S129P/T104I/T323A/T345S/V100E/V321M/V358M); assay: biochemical; assay type: binding
HLA A*6802 = HLA A*6802 (Homo sapiens, UniProt P04439, A269V/D140Y/D185E/E176V/E277Q/E87N/F33Y/G231S/I121R/I166T/I218V/L180W/L300P/L318F/N151K/P208A/P217A/Q86R/R138H/R169H/S129P/T345S/V36M); assay type: binding
HLA B*0702 = HLA B*0702 (Homo sapiens, UniProt P01889); assay type: binding; details: positional scanning combinatorial 9-mer library; normalized to 1.0 for the best residue at each position
HLA B*0801 = HLA B*0801 (Homo sapiens, UniProt P01889, A93T/A95T/D138N/E176V/E187T/K202T/Q94N/R180D/S35A/V36M/Y33D/Y91F); assay: biochemical; assay type: binding
HLA B*1501 = HLA B*1501 (Homo sapiens, UniProt P01889, A329T/A93T/A95T/C349S/D201E/D98Y/E187L/E204Q/E69M/E70A/K202T/N87E/Q94N/R155S/R180W/S121R/S35A/S48A/V306I/V36M/Y140S/Y91S); assay: biochemical; assay type: binding
HLA B*1503 = HLA B*1503 (Homo sapiens, UniProt P01889, A329T/A93T/A95T/C349S/D201E/D98Y/E187L/E204Q/K202T/N87E/Q94N/R155S/R180L/S121R/S35A/V306I/V36M/Y140S/Y91S); assay: biochemical; assay type: binding
HLA B*2705 = HLA B*2705 (Homo sapiens, UniProt P01889, D138H/D201E/E176V/E204Q/G107R/H137Y/K202T/N104T/N87E/Q56L/Q94K/R106L/R155S/R180L/S101D/S121N/S48T/Y140D/Y33H/Y91C); assay type: binding; details: positional scanning combinatorial 9-mer library; normalized to 1.0 for the best residue at each position
HLA B*3501 = HLA B*3501 (Homo sapiens, UniProt P01889, A329T/A93T/A95T/C349S/D201E/D98Y/E176V/E187L/E204Q/E69T/I218V/K202T/L119I/Q94N/R155S/R180L/S121R/S35A/S48A/T118I/V127L/V306I/V36M/Y140S/Y91F); assay type: binding
HLA B*5101 = HLA B*5101 (Homo sapiens, UniProt P01889, A329T/A93T/A95T/C349S/D138N/D201E/D98Y/E187L/E204Q/E69T/G107R/I218V/K202T/L105A/L119W/N104I/Q94N/R106L/R155S/R180L/S101N/S121T/S35A/S48A/V306I/V36M/Y195H/Y91F); assay type: binding
HLA B*5301 = HLA B*5301 (Homo sapiens, UniProt P01889, A329T/A93T/A95T/C349S/D201E/D98Y/E176V/E187L/E204Q/E69T/G107R/I218V/K202T/L105A/L119I/N104I/Q94N/R106L/R155S/R180L/S101N/S121R/S35A/S48A/T118I/V127L/V306I/V36M/Y140S/Y91F); assay type: binding
HLA B*5401 = HLA B*5401 (Homo sapiens, UniProt P01889, A329T/C349S/D138N/D201E/E176V/E187T/E204Q/E69G/I76V/K202T/L119W/R155S/R180L/S121T/S35A/S48A/V127L/V306I/V36M/Y140L); assay type: binding
HLA B*5801 = HLA B*5801 (Homo sapiens, UniProt P01889, A329T/C349S/D201E/D98Y/E176V/E187L/E204Q/E69T/G107R/I218V/I90N/K202T/L105A/L119I/N104I/N87E/Q89R/Q94S/R106L/R155S/R180L/R86G/S101N/S121R/S35A/S48A/T118I/V127L/V306I/V36M/Y140S/Y91M); assay type: binding
HLA B*5802 = HLA B*5802 (Homo sapiens, UniProt P01889, A329T/C349S/D201E/D98Y/E176V/E187L/E204Q/E69T/G107R/I218V/I90N/K202T/L105A/N104I/N87E/Q89R/Q94S/R106L/R155S/R180L/R86G/S101N/S121W/S35A/S48A/V127L/V306I/V36M/Y140S/Y91M); assay type: binding
H-2 D^b = H-2 D^b (Mus musculus, UniProt P01899); assay type: binding
Chain of H-2 D^b (P01887 21-119): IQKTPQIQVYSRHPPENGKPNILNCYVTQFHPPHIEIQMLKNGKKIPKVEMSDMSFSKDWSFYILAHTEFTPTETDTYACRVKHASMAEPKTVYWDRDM
Chain of H-2 D^b (P01899 25-362): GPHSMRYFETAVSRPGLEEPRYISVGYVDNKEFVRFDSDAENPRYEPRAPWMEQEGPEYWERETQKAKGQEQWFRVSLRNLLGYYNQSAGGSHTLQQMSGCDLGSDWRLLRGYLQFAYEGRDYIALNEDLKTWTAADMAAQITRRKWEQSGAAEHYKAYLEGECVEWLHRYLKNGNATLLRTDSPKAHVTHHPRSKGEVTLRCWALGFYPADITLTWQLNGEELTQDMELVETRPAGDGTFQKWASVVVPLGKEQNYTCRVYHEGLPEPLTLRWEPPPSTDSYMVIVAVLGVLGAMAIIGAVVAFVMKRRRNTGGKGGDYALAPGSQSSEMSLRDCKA

H-2 D^d = H-2 D^d (Mus musculus, UniProt P01900); assay type: binding
Chain of H-2 D^d (P01900 whole entry, looked up): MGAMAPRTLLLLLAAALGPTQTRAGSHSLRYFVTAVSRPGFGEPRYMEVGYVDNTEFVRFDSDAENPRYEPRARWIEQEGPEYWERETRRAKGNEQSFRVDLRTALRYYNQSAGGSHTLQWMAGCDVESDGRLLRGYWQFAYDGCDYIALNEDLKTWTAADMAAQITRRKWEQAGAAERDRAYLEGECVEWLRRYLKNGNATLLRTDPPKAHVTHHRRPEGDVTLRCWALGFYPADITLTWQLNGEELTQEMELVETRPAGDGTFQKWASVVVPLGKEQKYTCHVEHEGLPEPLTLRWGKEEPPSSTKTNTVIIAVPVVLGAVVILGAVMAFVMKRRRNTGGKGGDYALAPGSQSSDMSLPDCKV

H-2 K^k = H-2 K^k (Mus musculus, UniProt P04223); assay type: binding
Chain of H-2 K^k (P01887 21-119): as the sequence (P01887 21-119) above
Chain of H-2 K^k (P04223 22-369): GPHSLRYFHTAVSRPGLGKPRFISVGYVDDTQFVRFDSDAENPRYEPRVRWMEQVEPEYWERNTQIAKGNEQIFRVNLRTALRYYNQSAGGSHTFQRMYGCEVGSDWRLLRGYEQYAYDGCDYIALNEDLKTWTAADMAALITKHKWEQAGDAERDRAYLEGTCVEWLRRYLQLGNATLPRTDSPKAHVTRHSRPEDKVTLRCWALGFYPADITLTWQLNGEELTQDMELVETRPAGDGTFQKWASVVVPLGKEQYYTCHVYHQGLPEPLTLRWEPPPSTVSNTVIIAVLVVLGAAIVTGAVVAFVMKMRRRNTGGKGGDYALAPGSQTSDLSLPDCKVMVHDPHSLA

HLA A*0201 = HLA A*0201 (Homo sapiens, UniProt P04439, D140Y/D185E/D98H/E176V/E277Q/G131W/G231S/I119V/I121R/I166T/I218V/L300P/L318F/N151K/N90K/P208A/P217A/Q86G/Q94H/R138H/R169H/T345S); details: positional scanning combinatorial 9-mer library; normalized to 1.0 for the best residue at each position

Sequence	Normalized average relative binding affinity (ARB), HLA A*3001 (HLA A*3001)	Normalized average relative binding affinity (ARB), HLA A*3201 (HLA A*3201)	Normalized average relative binding affinity (ARB), HLA A*6802 (HLA A*6802)	Normalized average relative binding affinity (ARB), HLA B*0702 (HLA B*0702)	Normalized average relative binding affinity (ARB), HLA B*0801 (HLA B*0801)	Normalized average relative binding affinity (ARB), HLA B*1501 (HLA B*1501)	Normalized average relative binding affinity (ARB), HLA B*1503 (HLA B*1503)	Normalized average relative binding affinity (ARB), HLA B*2705 (HLA B*2705)	Normalized average relative binding affinity (ARB), HLA B*3501 (HLA B*3501)	Normalized average relative binding affinity (ARB), HLA B*5101 (HLA B*5101)	Normalized average relative binding affinity (ARB), HLA B*5301 (HLA B*5301)	Normalized average relative binding affinity (ARB), HLA B*5401 (HLA B*5401)	Normalized average relative binding affinity (ARB), HLA B*5801 (HLA B*5801)	Normalized average relative binding affinity (ARB), HLA B*5802 (HLA B*5802)	Normalized average relative binding affinity (ARB), H-2 Db (H-2 D^b)	Normalized average relative binding affinity (ARB), H-2 Dd (H-2 D^d)	Normalized average relative binding affinity (ARB), H-2 Kk (H-2 K^k)	Normalized average relative binding affinity (ARB), HLA A*0201 (HLA A*0201)
DXXXXXXXX [3064.0003]	0.0069	0.031	0.21	0.021	0.13	0.042	0.016	0.022	0.11	0.27	0.028	0.050	0.013	0.068	0.033	0.059	0.43	0.0078
EXXXXXXXX [3064.0004]	0.018	0.12	1.0	0.069	0.36	0.16	0.090	0.089	0.085	0.10	0.021	0.040	0.032	0.066	0.030	0.16	0.77	0.015
FXXXXXXXX [3064.0005]	0.035	0.090	0.53	0.21	0.57	0.59	1.0	0.60	0.50	0.25	0.14	0.74	0.34	0.081	1.0	0.34	1.0	1.0
GXXXXXXXX [3064.0006]	0.11	0.14	0.022	0.15	0.088	0.43	0.063	0.60	0.030	0.028	0.0086	0.0071	0.069	0.14	0.096	0.15	0.14	0.089
HXXXXXXXX [3064.0007]	0.49	0.38	0.53	0.80	0.18	0.59	0.20	0.49	1.0	0.15	1.0	0.34	0.43	0.026	0.17	0.21	0.91	0.0048
IXXXXXXXX [3064.0008]	0.11	0.47	0.076	0.42	0.068	1.0	0.51	0.22	0.30	0.23	0.15	0.27	0.35	0.17	0.13	0.39	0.27	0.12
